Results from publication PMC11939996 (Biomolecules, 2025).

Columns and labels:
[1] = tested on: Aβ40 fibrillation; assay: Transmission electron microscopy of Aβ40 fibrils; design: species or system human; settings: 20 μM Aβ40 alone or with 4 μM S100A8 or S100A9, after ThT assay (30 °C, pH 7.4)
Description: A 300-mesh copper grid coated with a 0.2% formvar film was placed onto a 10 µL drop of the sample. After allowing the sample (after the ThT fluorescence assay) to adsorb for 10 min, the grid was negatively stained for 2 min using a 1% (w/v) aqueous solution of uranyl acetate. Excess staining solution was removed with filter paper, followed by a 1 min rinse in deionized water. The samples were examined using a JEM-1400Plus (HC) transmission electron microscope (JEOL, Ltd., Tokyo, Japan) operated at 80 keV.

[2] = tested on: HSA–Aβ42 interaction; assay: BLI competition: HSA interaction with monomeric Aβ42 in presence of S100A8/S100A9; assay type: binding, human; settings: 67 µM HSA with 12 µM S100A8 or 7 µM S100A9; 25 °C, pH 7.4, 2.5 mM CaCl2
Description: (§1) Next, 96-well microplates with analyte solutions were kept at 25 °C and shaken at 1000 rpm. The Aβ samples were pretreated with neat TFA, followed by dissolution in DMSO as described in ref. [61, 66]. The pretreated ligand (5 μg/mL Aβ40/Aβ42 in 10 mM sodium acetate, pH 4.5 buffer) was immobilized onto Octet® AR2G biosensor (Sartorius AG, Göttingen, Germany) by amine coupling using EDAC/sulfo-NHS to achieve the loading level of 3.5 nm. The rest of the activated amine groups on the sensor were blocked by 1 M ethanolamine solution. The noncovalently bound ligand molecules were washed off the sensor with a 0.5% SDS water solution, followed by passage of the assay buffer (20 mM Tris-HCl, 140 mM NaCl, 4.9 mM KCl, 2.5 mM CaCl2, 1 mM MgCl2, pH 7.4), resulting in the loading level of 1.5 nm. […] The sensor surface was regenerated by the passage of 0.5% SDS water solution for 30 s.

[3] = tested on: Aβ40/Aβ42; assay: Chemical cross-linking with glutaraldehyde, SDS-PAGE; assay type: binding, human; settings: faint band; 0.02% glutaraldehyde, 37 °C, 1 h, 25–75 μM S100A8, 20 μM Aβ40/Aβ42, pH 7.4
Description: The protein solution was incubated at 25 °C for 30 min prior to the cross-linking.

[4] = tested on: HSA–Aβ40 interaction; assay: BLI competition: HSA interaction with monomeric Aβ40 in presence of S100A8/S100A9; assay type: binding, human; settings: 67 µM HSA with 12 µM S100A8 or 7 µM S100A9; 25 °C, pH 7.4, 2.5 mM CaCl2
Description: as §1

[5] = tested on: monomeric Aβ42; assay: Bio-layer interferometry, analyte binding to immobilized monomeric Aβ42; design: species or system human; settings: for ka × 10^−2: association, bivalent analyte model, number is ka multiplied by 10^−2, 25 °C, pH 7.4, 2.5 mM CaCl2, mean ± SD, n = 3–4
Description: (§2) Next, 96-well microplates with analyte solutions were kept at 25 °C and shaken at 1000 rpm. The Aβ samples were pretreated with neat TFA, followed by dissolution in DMSO as described in ref. [61, 66]. […] The rest of the activated amine groups on the sensor were blocked by 1 M ethanolamine solution. […] The sensor surface was regenerated by the passage of 0.5% SDS water solution for 30 s.
(§3) The direct interaction of S100 proteins with monomeric Aβ was studied by biolayer interferometry in the buffer conditions mimicking the physiological conditions (20 mM Tris-HCl, 140 mM NaCl, 4.9 mM KCl, 2.5 mM CaCl2, 1 mM MgCl2, pH 7.4).
(§4) Since the S100 proteins are predominantly dimeric, their BLI sensograms were described within the bivalent analyte model (1), taking into account that the dimer concentration is half of the monomer concentration.

[6] = target: Toll-like receptor 4; settings: in the presence of Ca^2+ and Zn^2+; cited from earlier work
[7] = target: RAGE V domain (Homo sapiens) (UniProt Q15109); settings: cited from earlier work
[8] = target: Toll-like receptor 4 (Homo sapiens) (UniProt O00206); settings: cited from earlier work
[9] = tested on: monomeric Aβ40; assay: Bio-layer interferometry, analyte binding to immobilized monomeric Aβ40; design: species or system human; settings: association; bivalent analyte model; number is ka multiplied by 10^−2; 25 °C, pH 7.4, 2.5 mM CaCl2; mean ± SD, n = 3–4
Description: as §2, §3, §4

[10] = target: RAGE V domain; settings: cited from earlier work
[11] = tested on: Aβ40; settings: cited from earlier work
Excerpt: Another component colocalized with senile plaques and associated with AD are specific members of the S100 protein family (reviewed in ref. [36]). The S100 family contains over two dozen small (9–13 kDa) multifunctional Ca^2+-binding proteins of the EF-hand superfamily, defined by the presence of the EF-hand motif, which coordinates a calcium ion through a loop located between two α-helices. Some S100 proteins affect cognitive processes, neuronal development and maintenance, APP processing, Aβ levels, the formation of amyloid plaques, post-translational modif ...

Sequence of RAGE V domain (Homo sapiens) (Q15109 23-116): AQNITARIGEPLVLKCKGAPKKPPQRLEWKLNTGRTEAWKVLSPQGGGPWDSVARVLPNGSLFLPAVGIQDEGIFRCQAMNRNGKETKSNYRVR
Sequence of S100A9 (P06702 whole entry): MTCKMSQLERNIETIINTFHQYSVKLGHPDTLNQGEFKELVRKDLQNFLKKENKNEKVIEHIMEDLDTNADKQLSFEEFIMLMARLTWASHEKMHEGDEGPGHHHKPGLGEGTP
Sequence of Toll-like receptor 4 (Homo sapiens) (O00206 24-839): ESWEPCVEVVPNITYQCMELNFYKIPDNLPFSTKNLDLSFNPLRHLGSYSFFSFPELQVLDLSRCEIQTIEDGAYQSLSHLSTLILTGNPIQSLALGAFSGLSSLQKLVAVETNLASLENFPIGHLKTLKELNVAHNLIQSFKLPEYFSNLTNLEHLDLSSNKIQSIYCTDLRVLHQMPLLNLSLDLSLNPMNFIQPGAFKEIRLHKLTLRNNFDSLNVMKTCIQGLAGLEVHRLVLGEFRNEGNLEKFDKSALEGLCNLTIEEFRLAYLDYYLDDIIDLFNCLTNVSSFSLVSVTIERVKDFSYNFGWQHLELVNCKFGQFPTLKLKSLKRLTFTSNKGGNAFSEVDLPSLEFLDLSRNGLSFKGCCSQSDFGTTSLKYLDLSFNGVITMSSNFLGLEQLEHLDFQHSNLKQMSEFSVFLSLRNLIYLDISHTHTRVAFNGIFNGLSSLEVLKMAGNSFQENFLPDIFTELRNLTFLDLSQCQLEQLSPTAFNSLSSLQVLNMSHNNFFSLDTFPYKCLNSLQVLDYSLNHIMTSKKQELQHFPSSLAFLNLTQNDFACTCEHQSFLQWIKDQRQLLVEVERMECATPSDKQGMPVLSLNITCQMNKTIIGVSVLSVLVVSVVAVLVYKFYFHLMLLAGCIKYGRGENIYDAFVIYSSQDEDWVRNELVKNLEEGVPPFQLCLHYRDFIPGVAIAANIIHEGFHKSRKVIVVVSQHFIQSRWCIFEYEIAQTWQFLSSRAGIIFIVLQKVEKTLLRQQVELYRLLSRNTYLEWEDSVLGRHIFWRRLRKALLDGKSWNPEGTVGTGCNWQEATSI

For “Aβ40: Recombinant human amyloid-β peptide, 40 residues, prepared in E. coli”, the “fibril morphology by TEM” value [1] was “dense clusters of the intertwined mature fibrils reaching microns in length”.
In the case of “S100A8: Recombinant human S100A8 prepared in E. coli; pro-inflammatory EF-hand Ca2+-binding protein”, the “maximal BLI signal of HSA interaction with Aβ42” value [2] is reported as “marked decline in the maximal BLI signal”, the “band of cross-linked complex of S100A8 and Aβ monomers” value [3] is reported as “about 15 kDa” and the “maximal BLI signal of HSA interaction with Aβ40” value [4] is reported as “marked decline in the maximal BLI signal”. The “accelerated association with Aβ42 versus Aβ40” value ([5]; Aβ42 vs Aβ40) was 1.5 fold, the “slower dissociation from Aβ42 versus Aβ40” value ([5]; Aβ42 vs Aβ40) was 2.4 fold and the “ka × 10^−2” value [5] was 3.4 ± 0.9 M^−1s^−1. The Kd [6] was 1 µM.
In the case of S100A9 (from UniProt P06702), the Kd [7] is listed as 5.5 µM.
In the case of S100A8 (from UniProt P05109), the Kd [8] is given as 1 µM.
For “S100A9: Recombinant human S100A9 prepared in E. coli; pro-inflammatory EF-hand Ca2+-binding protein”, the “maximal BLI signal of HSA interaction with Aβ42” value [2] was “marked decline in the maximal BLI signal”, the “ka × 10^−2” value [9] was 2.6 ± 1.0 M^−1s^−1 and the “maximal BLI signal of HSA interaction with Aβ40” value [4] was “marked decline in the maximal BLI signal”. For the same substance, the “ka × 10^−2” value [5] was 4.5 ± 1.3 M^−1s^−1, the Kd [10] was 5 to 6 µM and the “direct S100A9–Aβ40 interaction by NMR” value [11] was “direct S100A9–Aβ40 interaction”.
